Reference: PubChem BioAssay AID1963974 (Molecular Pharmacology Branch, DTP, NCI, 2024)

Test system: 648629-189-R-J1-PDC spheroids with HUVEC/MSC, viability
Assay: Anticancer human tumor 648629-189-R-J1-PDC patient-derived bladder carcinoma cell line growth inhibition [PI3K]
Details: for IC50: curve of first compound; for viability, T/C: stronger effect = lower value
Description: Combinatorial screen of targeted agents with the PI3K inhibitors inavolisib, alpelisib, duvelisib, and copanlisib in multi-cell type tumor spheroids
A high-throughput screen of multi-cell type tumor spheroids was designed to identify active combinations of targeted small molecules and PI3K pathway inhibitors. Complex spheroids include a stromal component modeled by human endothelial cells (HUVEC) and fibroblasts modeled by human mesenchymal stem cells (MSCs). The concentration ranges selected for each drug and investigational agent were based upon clinically achievable concentrations if the clinical Cmax of the agent was known.
Compounds. The drugs and investigational agents: inavolisib (NSC800729), alpelisib (NSC765974), duvelisib (NSC772469), copanlisib (NSC816437), ipatasertib (NSC767898), afuresertib (NSC778305), talazoparib (NSC767125), sapanisertib (NSC764658), selumetinib (NSC741078), tovorafenib (DAY101, NSC766906), vemurafenib (NSC761431), ravoxertinib (NSC781343), sotorasib (NSC818433), MRTX1133 (NSC 836407), abemaciclib (NSC 768073), palbociclib (NSC758247), venetoclax (NSC 766270), SY5609 (NSC837396), enzalutamide (NSC755605), and darolutamide (NSC825331), were obtained from the National Cancer Institute (NCI) Developmental Therapeutics Program Chemical Repository. The FDA-approved anticancer drug set is available from the NCI Developmental Therapeutics Program. […] The stock solutions were prepared in dimethyl sulfoxide (DMSO, Sigma-Aldrich, St. Louis, MO, cat. D2650) at 800-fold the tested concentration and stored at -70 degrees C prior to their use. All drugs and investigational agents were tested over a range starting from a high concentration at or near the clinical Cmax and decreasing in half-log increments. If the clinical Cmax for an agent had not been determined, the highest concentration tested was 10 microM.
Cell Culture. All cells were maintained in an incubator at 37 degrees C and 5% CO2 with 95% humidity. The PDC lines were cultured according to standard operating procedures established by the NCI PDMR (https://pdmr.cancer.gov/sops/default.htm). All PDCs were thawed and cultured in Matrigel-coated flasks prepared with a working solution of 1X Ham's F-12 nutrient mix, without supplementation (Invitrogen, Waltham, MA, cat. 11765054), 100 U/mL penicillin-streptomycin (Invitrogen, cat. 15140122), and 2.5% Matrigel (Corning Inc., Corning, NY, cat. 354248) for the first three passages. The 354836-022-R-J1-PDC, 475296-252-R-J1-PDC, and 997726-040-R-J2-PDC lines were cultured in 6A media, which includes advanced DMEM/F-12 (Thermo Fisher Scientific, cat. 12634028), 10 mM HEPES (Thermo Fisher Scientific, cat. 15630080), 1X GlutaMAX supplement (Thermo Fisher Scientific, cat. 35050061), 0.1 mg/mL primocin (InvivoGen, San Diego, CA, cat. ant-pm-2), 10% defined fetal bovine serum, heat inactivated (HyClone Laboratories Inc., Logan, UT, cat. SH30070.03HI), 50% L-WRN conditioned media (ATCC, cat. CRL-3276), 1.25 mM N-Acetyl-L-cysteine (Sigma-Aldrich, cat. A9165), 10 mM nicotinamide (Sigma-Aldrich, cat. N0636), 1X B-27 supplement (Thermo Fisher Scientific, cat. 17504044), 1X N-2 supplement (Thermo Fisher Scientific, cat. 17502048), and 10 microM Y-27632 dihydrochloride (Tocris Bioscience, Bristol, United Kingdom, cat. 1254). The 624824-186-R-J2-PDC line was cultured in 6C/Colon 1B media, which includes all 6A media components plus 50 ng/mL human EGF recombinant protein (Thermo Fisher Scientific, cat. PHG0311). […]

[1] = second compound 0.00316 µM, first compound 0.0316 µM
[2] = second compound 0.00316 µM, first compound 0.1 µM
[3] = second compound 0.00316 µM, first compound 0.316 µM
[4] = second compound 0.00316 µM, first compound 1 µM
[5] = second compound 0.00316 µM, first compound 3.16 µM
[6] = second compound 0.00316 µM, first compound 10 µM
[7] = second compound 0.01 µM, first compound 0.0316 µM
[8] = second compound 0.01 µM, first compound 0.1 µM
[9] = second compound 0.01 µM, first compound 0.316 µM
[10] = second compound 0.01 µM, first compound 1 µM
[11] = second compound 0.01 µM, first compound 3.16 µM
[12] = second compound 0.01 µM, first compound 10 µM
[13] = second compound 0.0316 µM, first compound 0.0316 µM
[14] = second compound 0.0316 µM, first compound 0.1 µM
[15] = second compound 0.0316 µM, first compound 0.316 µM
[16] = second compound 0.0316 µM, first compound 1 µM
[17] = second compound 0.0316 µM, first compound 3.16 µM
[18] = second compound 0.0316 µM, first compound 10 µM
[19] = second compound 0.1 µM, first compound 0.0316 µM
[20] = second compound 0.1 µM, first compound 0.1 µM
[21] = second compound 0.1 µM, first compound 0.316 µM
[22] = second compound 0.1 µM, first compound 1 µM
[23] = second compound 0.1 µM, first compound 3.16 µM
[24] = second compound 0.1 µM, first compound 10 µM
[25] = second compound 0.316 µM, first compound 0.0316 µM
[26] = second compound 0.316 µM, first compound 0.1 µM
[27] = second compound 0.316 µM, first compound 0.316 µM
[28] = second compound 0.316 µM, first compound 1 µM
[29] = second compound 0.316 µM, first compound 3.16 µM
[30] = second compound 0.316 µM, first compound 10 µM
[31] = second compound 1 µM, first compound 0.0316 µM
[32] = second compound 1 µM, first compound 0.1 µM
[33] = second compound 1 µM, first compound 0.316 µM
[34] = second compound 1 µM, first compound 1 µM
[35] = second compound 1 µM, first compound 3.16 µM
[36] = second compound 1 µM, first compound 10 µM
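Also: spheroids exposed to agents for seven days before reading.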
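For viability, T/C in this document: percent of vehicle control luminescence where 100% = DMSO treated spheroids.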

Q: Which IC50 (second compound 0.00316 µM) does the source give for C=CC(=O)N1CCN(c2nc(=O)n(-c3c(C)ccnc3C(C)C)c3nc(-c4c(O)cccc4F)c(F)cc23)C(C)C1 (centres undefined) + CC(Nc1ccc2c(c1)OCCn1cc(N3C(=O)OCC3C(F)F)nc1-2)C(N)=O here?
A: > 10 µM

Q: And the IC50 (second compound 0.01 µM)?
A: > 10 µM

Q: And the IC50 (second compound 0.0316 µM)?
A: > 10 µM

Q: And the IC50 (second compound 0.1 µM)?
A: > 10 µM

Q: What about the IC50 (second compound 0.316 µM) of the same compound?
A: > 10 µM

Q: And the IC50 (second compound 1 µM)?
A: > 10 µM

Q: What about the viability, T/C [1] of the same compound?
A: 111%

Q: What about the viability, T/C [2] of the same compound?
A: 99.1%

Q: What about the viability, T/C [3] of the same compound?
A: 117%

Q: What about the viability, T/C [4] of the same compound?
A: 105%

Q: And the viability, T/C [5]?
A: 106%

Q: And the viability, T/C [6]?
A: 92.3%

Q: What about the viability, T/C [7] of the same compound?
A: 121%

Q: What about the viability, T/C [8] of the same compound?
A: 106%

Q: And the viability, T/C [9]?
A: 111%

Q: What about the viability, T/C [10] of the same compound?
A: 114%

Q: What about the viability, T/C [11] of the same compound?
A: 115%

Q: What about the viability, T/C [12] of the same compound?
A: 92.3%

Q: And the viability, T/C [13]?
A: 101%

Q: What about the viability, T/C [14] of the same compound?
A: 108%

Q: And the viability, T/C [15]?
A: 98.2%

Q: What about the viability, T/C [16] of the same compound?
A: 106%

Q: What about the viability, T/C [17] of the same compound?
A: 123%

Q: And the viability, T/C [18]?
A: 92.5%

Q: What about the viability, T/C [19] of the same compound?
A: 92.4%

Q: What about the viability, T/C [20] of the same compound?
A: 106%

Q: What about the viability, T/C [21] of the same compound?
A: 107%

Q: What about the viability, T/C [22] of the same compound?
A: 115%

Q: What about the viability, T/C [23] of the same compound?
A: 103%

Q: And the viability, T/C [24]?
A: 92.5%

Q: And the viability, T/C [25]?
A: 92.6%

Q: What about the viability, T/C [26] of the same compound?
A: 93.1%

Q: And the viability, T/C [27]?
A: 84.1%

Q: And the viability, T/C [28]?
A: 95.2%

Q: And the viability, T/C [29]?
A: 84.5%

Q: And the viability, T/C [30]?
A: 78.1%

Q: What about the viability, T/C [31] of the same compound?
A: 73.1%

Q: And the viability, T/C [32]?
A: 71.9%

Q: And the viability, T/C [33]?
A: 73.5%

Q: What about the viability, T/C [34] of the same compound?
A: 80.7%

Q: What about the viability, T/C [35] of the same compound?
A: 91.8%

Q: And the viability, T/C [36]?
A: 66.2%

Q: For CC(Cn1ccc(-c2ccc(C#N)c(Cl)c2)n1)NC(=O)c1cc(C(C)O)[nH]n1 (centres undefined) + CC(Nc1ccc2c(c1)OCCn1cc(N3C(=O)OCC3C(F)F)nc1-2)C(N)=O, which IC50 (second compound 0.00316 µM) is on record?
A: > 10 µM

Q: What about the IC50 (second compound 0.01 µM) of the same compound?
A: > 10 µM

Q: And the IC50 (second compound 0.0316 µM)?
A: > 10 µM

Q: What about the IC50 (second compound 0.1 µM) of the same compound?
A: > 10 µM

Q: What about the IC50 (second compound 0.316 µM) of the same compound?
A: > 10 µM

Q: What about the IC50 (second compound 1 µM) of the same compound?
A: > 10 µM

Q: And the viability, T/C [1]?
A: 99.9%

Q: And the viability, T/C [2]?
A: 97.1%

Q: What about the viability, T/C [3] of the same compound?
A: 92.5%

Q: And the viability, T/C [4]?
A: 90.1%

Q: What about the viability, T/C [5] of the same compound?
A: 85.7%

Q: And the viability, T/C [6]?
A: 68.3%

Q: What about the viability, T/C [7] of the same compound?
A: 92.7%

Q: And the viability, T/C [8]?
A: 97.2%

Q: What about the viability, T/C [9] of the same compound?
A: 92.9%

Q: And the viability, T/C [10]?
A: 88.3%

Q: And the viability, T/C [11]?
A: 89.9%

Q: And the viability, T/C [12]?
A: 70.4%

Q: And the viability, T/C [13]?
A: 97.2%

Q: What about the viability, T/C [14] of the same compound?
A: 98.7%

Q: And the viability, T/C [15]?
A: 95.2%

Q: And the viability, T/C [16]?
A: 83.5%

Q: And the viability, T/C [17]?
A: 83.8%

Q: And the viability, T/C [18]?
A: 75.5%

Q: And the viability, T/C [19]?
A: 106%

Q: And the viability, T/C [20]?
A: 86.9%

Q: What about the viability, T/C [21] of the same compound?
A: 85.8%

Q: And the viability, T/C [22]?
A: 86.2%

Q: What about the viability, T/C [23] of the same compound?
A: 84.5%

Q: And the viability, T/C [24]?
A: 72%

Q: And the viability, T/C [25]?
A: 83.8%

Q: And the viability, T/C [26]?
A: 87.5%

Q: And the viability, T/C [27]?
A: 78.1%

Q: And the viability, T/C [28]?
A: 94.2%

Q: What about the viability, T/C [29] of the same compound?
A: 72.8%

Q: And the viability, T/C [30]?
A: 58.2%

Q: What about the viability, T/C [31] of the same compound?
A: 73.2%

Q: And the viability, T/C [32]?
A: 71.6%

Q: What about the viability, T/C [33] of the same compound?
A: 61.5%

Q: What about the viability, T/C [34] of the same compound?
A: 67.6%

Q: And the viability, T/C [35]?
A: 60%

Q: What about the viability, T/C [36] of the same compound?
A: 57.9%
